Laboratory results reported in patent publication US20020028188A1, “Method of preparing particularly skin-compatible cosmetic or dermatological cleansing preparations” (priority 1999, published 2002).

Test system: surface of the skin
Assay: adsorption of lauryl ether sulfate on the skin (simulated washing operation, forearm, desorption, ion-pair chromatography)
Format: in vivo, human
Settings: significance: Yes
Method: The method which we have developed for determining the adsorption of lauryl ether sulfate on the skin simulates a washing operation as occurs, for example, during daily showering: Firstly, the inner sides of the forearms are divided into a number of test areas using insulating tape. The area to be treated is then wetted with approximately 50 ml of mains water (T=38±1° C.). The lauryl ether sulfate is then applied. Throughout the application period of 45 s, the test subject distributes the lauryl ether sulfate over the area using 2 fingers in uniform circular movements. At the end of the application period, the test area is rinsed with approximately 950 ml of mains water (T=38±1° C.) and carefully patted dry using a clean cellulose cloth. For the desorption, a plastic ring with an internal diameter of 25 mm is pressed firmly onto the inner side of the test subject's forearm. 1000 μl of a 1% Triton X-100 solution are then introduced into the ring. The tip of a round Teflon-coated spatula is then used to scrape the skin uniformly for 1 min. This leads to suspension of corneocytes. To work up the samples for analysis, the samples are centrifuged and 800 μl of the supernatant are drawn off. The supernatant is analyzed with regard to its lauryl ether sulfate content using ion-pair chromatography. The effectiveness of the desorption method described is 79%, i.e. 79% of the amount of lauryl ether sulfate actually present on the skin are included.

[1] = cosurfactant concentration 3% added to a lauryl ether sulfate solution

Compound | Effect on the adsorbed amount of lauryl ether sulfate (Reduction by) [1] | also measured
CCCCCCCCCCO[C@@H]1O[C@H](CO)[C@@H](O)[C@H](O)[C@H]1O [Decyl glucoside] |  | Effect on the adsorbed amount of lauryl ether sulfate (Reduction by) (cosurfactant concentration 5% added to a lauryl ether sulfate solution): Reduction by 29%
CCCCCCCCCCCC(=O)O [Lauric acid] |  | Effect on the adsorbed amount of lauryl ether sulfate (Reduction by) (cosurfactant concentration 1%, pH9, added to a lauryl ether sulfate solution): Reduction by 15%
Cocamidopropylbetaine | Reduction by 31% | 
Disodium laureth sulfosuccinate | Reduction by 28% | 
Sodium cocoamphoacetate | Reduction by 27% | 
